According to paper PMC10567728, “Targeted imaging of uPAR expression in vivo with cyclic AE105 variants” (Scientific Reports, 2023):
Values joined by “and” are separate entries in the source; they are usually repeats but may differ in a detail not shown here. Identical values can stand only once. Positions of bridges follow the written chain, without caps; N, C: chain ends. Non-standard residues stand in square brackets, D forms with d. Residues, ends and D or L forms follow the SMILES beside them. *: point of attachment. DOTA = O=C(O)CN1CCN(CC(=O)O)CCN(CC(=O)*)CCN(CC(=O)O)CC1; Cha = N[C@@H](CC1CCCCC1)C(=O)O

How the values were obtained:
uPAR [1] = target: T1, uPAR (Homo sapiens, UniProt Q03405); test: SPR real-time binding kinetics, peptides in solution and immobilised uPAR; conditions: for kon: read-out: kon
T1 construct: Recombinant human uPAR^1–283 was expressed; made in house; host or cells: Drosophila melanogaster S2 cells
T1 sequence (Q03405 23-305): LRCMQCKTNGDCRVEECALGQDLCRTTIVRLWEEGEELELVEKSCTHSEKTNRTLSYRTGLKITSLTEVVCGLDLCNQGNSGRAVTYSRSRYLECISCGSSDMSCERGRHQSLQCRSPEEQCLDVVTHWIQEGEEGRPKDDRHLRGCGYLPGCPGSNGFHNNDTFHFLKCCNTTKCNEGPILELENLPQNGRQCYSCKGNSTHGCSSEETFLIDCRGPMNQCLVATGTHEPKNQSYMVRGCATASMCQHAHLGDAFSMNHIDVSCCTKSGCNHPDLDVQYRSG
Description: The real-time binding kinetics of uPAR•peptide interactions were measured with SPR using a Biacore T200™(Cytiva); essentially as described in[56],[77]. In brief, uPAR was covalently immobilised on a CM5 sensor chip via amine coupling resulting in a surface density of 1157–1581 RU (~ 33–44 fmol/mm^2). The binding kinetics for the peptides to immobilised uPAR were measured using a single cycle protocol. In this setup, peptides were injected as five serial two-fold dilutions with a contact time of 200 s. After the last analyte injection, the dissociation time was set to 1000 s. The sensor chip was regenerated with two consecutive injections of 0.1 M acetic acid in 0.5 M NaCl. All experiments were conducted at 20 °C with a flow rate of 50 µL/min in 10 mM HEPES, 150 mM NaCl, 3 mM EDTA, and 0.05% (v/v) surfactant P-20 at pH 7.4. The kinetic rate constants (kon and koff) were determined by non-linear regression fitting of the curves to the simple bimolecular interaction model (BiacoreT200 Evaluation™ 3.0 software).

uPAR [2] = target: T1, uPAR; test: Nano-DSF thermal stability of uPAR•peptide complexes; conditions: for Tm (apparent melting temperature of uPAR•peptide complex): 15 µM uPAR, 30 µM peptide, PBS pH 7.4, n = 3; for decrease in apparent Tm on introduction of spacer: (4) vs (1), (6) vs (3)
Description: The thermal stability of the uPAR•peptide complexes was analyzed with Nano-DSF using a Prometheus NT.48™ (Nanotemper). uPAR (15 µM) was mixed with twofold excess of peptide (30 µM) in PBS pH 7.4 and incubated for 15 min at RT to ensure complex formation. Samples containing either 15 µM uPAR or 30 µM of each peptide were included as controls. The samples were loaded into standard capillaries and in triplicates. To unfold the proteins, the samples were exposed to an increasing temperature gradient from 20 to 95 °C with a ramping rate of 1 °C/min. The excitation power was set to 50% (Ex.280 nm) and the fluorescence emission collected at 330 nm and 350 nm. The melting temperatures of the complexes were determined in the PR.ThermControl software (Nanotemper) from the first derivative of the fluorescence ratio (350 nm/330 nm).

uPAR•uPA interaction = target: T2, uPAR•uPA interaction (Homo sapiens, UniProt Q03405); test: SPR competition assay of the uPAR•uPA interaction; format: binding; conditions: for IC50: competition of uPAR•uPA interaction, 2 nM uPAR, 20 °C, n = 3
T2 construct: Recombinant human uPAR^1–283 was expressed; made in house; host or cells: Drosophila melanogaster S2 cells
T2 sequence (Q03405 23-305): as above
Description: The IC50-values of antagonistic peptides on the uPAR•uPA interaction were determined with SPR using a Biacore T200™ or Biacore 3000™ instruments (Cytiva) essentially as described[4],[56],[77]. In brief, we immobilized high levels of pro-uPA^S356A (0.1 pmol pro-uPA/mm^2) on a CM5 sensor chip via amine coupling. The experiments were conducted by injecting 2 nM uPAR in presence of a threefold dilution series of a given antagonistic peptide for 300 s with a flow rate of 50 µL/min at 20 °C. The high immobilization levels result in binding conditions that are entirely controlled by mass transport limitations (MTL). Accordingly, the observed association rates (vobs) are directly proportional to the concentrations of binding-active uPAR in solution. To determine the IC50, we also measured a standard curve of uPAR binding (a twofold dilution series of 0.06 to 2 nM uPAR, linear due to MTL). The running buffer was 10 mM HEPES, 150 mM NaCl, 3 mM EDTA, and 0.05% (v/v) surfactant P-20 at pH 7.4, and the regeneration buffer was 0.1 M acetic acid in 0.5 M NaCl.

[3] = test system: uPAR expression in U87MG tumor-bearing mice; format: in vivo; conditions: [64Cu]Cu-DOTA peptides, PET scanning or ex vivo counting of resected organs
Description: Five weeks old female NMRI nude mice were purchased from Janvier (Le Genest-Saint-Isle, France) and housed in groups to acclimatize for a week upon arrival with light/dark period of 12/12 h and under controlled environmental conditions (temperature: 20–22 °C, relative humidity: 55%). Access to fresh water and standard pellet diet was provided ad libitum. Human glioblastoma cancer cell line U87MG (ATCC, Manassas, USA) was cultured in Dulbecco’s modified eagle medium (DMEM) supplemented with 10% fetal bovine serum and 1% penicillin–streptomycin at 37 °C and 5% CO2. Cells were harvested by trypsinization at a confluence of 70–90%. Mice were anesthetized (3–4% sevoflurane in 65% N2 and 35% O2) and ~ 4 × 10^6 U87MG cells resuspended in 100 μL PBS were injected subcutaneously into the right flank. Tumors were allowed to grow for 20 days. Tumor sizes were monitored using caliper measurements (Volume = 0.5 x (Length x Width^2)).
Tumor-bearing mice (tumor volumes (mean ± SD) of 221 ± 105 mm^3) were grouped (n = 6 per group) and anesthetized (3–4% sevoflurane in 65% N2 and 35% O2) prior to imaging. The four different [^64Cu]Cu–DOTA conjugated peptides were administered via tail vein injections of 5.4 ± 0.4 MBq corresponding to 118 ± 7 pmol (1b), 111 ± 4 pmol (8b), 92 ± 3 pmol (9b), and 75 ± 4 pmol (11b) (mean ± SD). Whole-body imaging consisting of a CT acquisition followed by a static PET acquisition was performed on an Inveon® small animal imaging system (Siemens Medical Systems, Malvern, PA, USA). PET/CT imaging was performed 1 h, 22 h, and 46 h post-injection (p.i.) of tracer with a 5 min, 10 min and 15 min PET scan, respectively. During scans the animals were placed on a heated bedding system to keep the body temperature stable. The PET acquisition was performed with an energy window of 350–650 keV and a time resolution of 6 ns, and data was corrected for dead time and decay. The CT scan consisted of 360 projections, with a tube voltage of 65 kV, a tube current of 500 μA and an exposure time of 400 ms per projection. Sinograms from PET scans were reconstructed using a 3-dimensional maximum a posteriori algorithm with correction for scatter and attenuation (CT-based). PET and CT images were co-registered and analyzed using Inveon Research Workplace software (Siemens Medical Solutions). The mean percentage of injected dose per grams (%ID/g) in different tissues was extracted by manually creating regions of interest (ROI) on fused PET/CT images.

uPAR [4] = conditions: read-out: KD of the uPA•uPAR interaction; cited from earlier work
[5] = single cycle SPR, immobilised uPAR, 20 °C
[6] = single cycle SPR, immobilised uPAR, 20 °C, 1:1 model
[7] = DOTA-conjugated peptides with spacer, compared to (4b)
[8] = [63Cu]-DOTA labelled peptides, single-cycle SPR

| Compound | koff (uPAR [1]; [5]) [s⁻¹] | Kd (uPAR [1]; [6]) [nM] | kon (uPAR [1]; [5]) [M⁻¹ s⁻¹] | Tm (apparent melting temperature of uPAR•peptide complex) (uPAR [2]) | IC50 (uPAR•uPA interaction) [nM] | other results |
| --- | --- | --- | --- | --- | --- | --- |
| CC(C)C[C@@H]1NC(=O)[C@H](Cc2ccc(O)cc2)NC(=O)[C@H](NC(=O)[C@@H](CO)NC(=O)[C@H](Cc2ccccc2)NC(=O)[C@H](CC2CCCCC2)NC(=O)[C@H](CC(=O)O)NC(=O)CNC(=O)CNC(=O)[C@@H](CO)NC(=O)CNC(=O)[C@H](CCC(=O)O)NC(=O)[C@H](CCC(=O)O)NC(=O)CN2CCN(CC(=O)O)CCN(CC(=O)O)CCN(CC(=O)O)CC2)CSSC[C@@H](C(=O)O)NC(=O)[C@H](Cc2c[nH]c3ccccc23)NC1=O [6b] ({DOTA}-EEG[dS]GGD[Cha]F[dS][dC]YLWC-OH; disulfide 11-15) | 0.00977 ± 1e-05 | 20.3 | 481000 ± 1000 | 61.3 ± 0.4 °C | 15.8 ± 0.4 | increase in apparent Tm (uPAR [2]; [7]): 6–14 °C |
| CC(C)C[C@H](NC(=O)[C@H](Cc1ccc(O)cc1)NC(=O)[C@@H](CCCNC(=N)N)NC(=O)[C@@H](CO)NC(=O)[C@H](Cc1ccccc1)NC(=O)[C@H](CC1CCCCC1)NC(=O)[C@H](CC(=O)O)NC(=O)CN1CCN(CC(=O)O)CCN(CC(=O)O)CCN(CC(=O)O)CC1)C(=O)N[C@@H](Cc1c[nH]c2ccccc12)C(=O)N[C@@H](CO)C(N)=O [8b] | 0.002064 ± 2e-06 | 4.22 | 490000 ± 1000 | ~ 70 °C | 8.2 ± 0.1 | Kd (uPAR [1]; [8]): 13.9 nM; koff (uPAR [1]; [8]): 0.00425 ± 1e-05 s⁻¹; reduction of affinity on DOTA-conjugation (uPAR [1]; real-time binding kinetics, vs unconjugated peptides): 8–11 fold; increase in apparent Tm (uPAR [2]; DOTA-conjugated peptides, compared to (1b)): approximately 11 °C; IC50 of DOTA-conjugated peptide compared to unconjugated peptide (uPAR•uPA interaction; (1b) vs (1), (8b) vs (8)): four to fivefold higher; tumor uptake and imaging contrast, (1b) compared with (8b) [3]: no significant differences |
| CC(C)C[C@H](NC(=O)[C@H](Cc1ccc(O)cc1)NC(=O)[C@@H](CCCNC(=N)N)NC(=O)[C@@H](CO)NC(=O)[C@H](Cc1ccccc1)NC(=O)[C@H](CC1CCCCC1)NC(=O)[C@H](CC(=O)O)NC(=O)CNC(=O)CNC(=O)[C@@H](CO)NC(=O)CNC(=O)[C@H](CCC(=O)O)NC(=O)[C@H](CCC(=O)O)NC(=O)CN1CCN(CC(=O)O)CCN(CC(=O)O)CCN(CC(=O)O)CC1)C(=O)N[C@@H](Cc1c[nH]c2ccccc12)C(=O)N[C@@H](CO)C(N)=O [10b] ({DOTA}-EEG[dS]GGD[Cha]F[dS][dR]YLWS-NH2) | 0.001367 ± 1e-06 | 3.18 | 429700 ± 400 | 66.2 ± 0.3 °C | 4.8 ± 0.2 | increase in apparent Tm (uPAR [2]; [7]): 6–14 °C |
| CC(C)C[C@H](NC(=O)[C@H](Cc1ccc(O)cc1)NC(=O)[C@@H](CCCNC(=N)N)NC(=O)[C@@H](CO)NC(=O)[C@H](Cc1ccccc1)NC(=O)[C@H](CC1CCCCC1)NC(=O)[C@H](CC(=O)O)NC(=O)CNC(=O)CNC(=O)[C@@H](CO)NC(=O)CNC(=O)[C@H](CCC(=O)O)NC(=O)[C@@H](N)CCC(=O)O)C(=O)N[C@@H](Cc1c[nH]c2ccccc12)C(=O)N[C@@H](CO)C(=O)O [compound 4] (H-EEG[dS]GGD[Cha]F[dS][dR]YLWS-OH; N-terminus assumed) | 0.00558 ± 1e-05 | – | 280000 ± 1000 | 55.2 °C and 55.2 ± 0.2 °C | – | decrease in apparent Tm on introduction of spacer (uPAR [2]): 10 °C; fold increase in the IC50-value (uPAR•uPA interaction; compared to AE105 (1)): 2.7 fold |
| CC(C)C[C@@H]1NC(=O)[C@H](Cc2ccc(O)cc2)NC(=O)[C@H](NC(=O)[C@@H](CO)NC(=O)[C@H](Cc2ccccc2)NC(=O)[C@H](CC2CCCCC2)NC(=O)[C@H](CC(=O)O)NC(=O)CNC(=O)CNC(=O)[C@@H](CO)NC(=O)CNC(=O)[C@H](CCC(=O)O)NC(=O)[C@@H](N)CCC(=O)O)CSSC[C@@H](C(=O)O)NC(=O)[C@H](Cc2c[nH]c3ccccc23)NC1=O [compound 6] (H-EEG[dS]GGD[Cha]F[dS][dC]YLWC-OH; disulfide 11-15; N-terminus assumed) | 0.01033 ± 3e-05 | – | 611000 ± 3000 | 60.6 °C and 60.6 ± 0.7 °C | – | association rate constant (kon) compared to (4) (uPAR [1]): improved ~ twofold; dissociation rate constant (koff) compared to (4) (uPAR [1]): ~ twofold impairment; decrease in apparent Tm on introduction of spacer (uPAR [2]): 10 °C; increase in thermal stability (apparent Tm) (uPAR [2]; disulfide-bonded peptide compared to linear peptide (4)): 5 °C; increase in potency (uPAR•uPA interaction; compared to (4)): 1.4 fold; increase in potency (uPAR•uPA interaction; compared to (5)): 11 fold |
| CC(C)C[C@H](NC(=O)[C@H](Cc1ccc(O)cc1)NC(=O)[C@@H](CCCNC(=N)N)NC(=O)[C@@H](CO)NC(=O)[C@H](Cc1ccccc1)NC(=O)[C@H](CC1CCCCC1)NC(=O)[C@H](CC(=O)O)NC(=O)CNC(=O)CNC(=O)[C@@H](CO)NC(=O)CNC(=O)[C@H](CCC(=O)O)NC(=O)[C@@H](N)CCC(=O)O)C(=O)N[C@@H](Cc1c[nH]c2ccccc12)C(=O)N[C@@H](CO)C(N)=O [compound 10] (H-EEG[dS]GGD[Cha]F[dS][dR]YLWS-NH2; N-terminus assumed) | 0.001497 ± 2e-06 | – | 595000 ± 1000 | ~ 65 °C | – | fold increase in potency on C-terminal amidation (uPAR•uPA interaction; (8) vs (1) and (10) vs (4)): 5.6 fold |
| urokinase-type plasminogen activator [uPA] | – | – | – | – | – | Kd (uPAR [4]): 0.02 nM |
